From patent publication US20220192984A1, “PHARMACEUTICAL COMPOSITIONS COMPRISING OTIC THERAPEUTIC AGENTS AND RELATED METHODS” (Frequency Therapeutics, Inc., priority 2018, published 2022)
Structures can show the parent of a compound that is named as a salt. Where two headings read alike, the source gives them in different places. One block for each molecule: values may come before it.

How the values were obtained:
EZH2 [1] = biological target: T1, EZH2 (Homo sapiens, UniProt Q15910); conditions: Table 19, EZH2; read-out: pKi or IC50 (converted); cited from earlier work
EZH2 [2] = biological target: T1, EZH2; conditions: Table 19; cited from earlier work
[3] = Perilymph Conc. listed for agents (Tables 14-25)
[4] = cited from earlier work
EZH-1 = EZH-1 (Homo sapiens, UniProt Q92800); conditions: Table 19; read-out: Select vs EZH-1; cited from earlier work
DOT1L [5] = biological target: T2, DOT1L (Homo sapiens, UniProt Q8TEK3); conditions: Table 20; read-out: pKi or IC50 (converted); cited from earlier work
Lgr5+ cells = experiment: Lgr5+ Assay (Lgr5+ cell assay in vitro); type: cell-based
KDM [6] = conditions: cited from earlier work
KDM [7] = conditions: Table 21; cited from earlier work
LSD1 [8] = biological target: T3, LSD1 (Homo sapiens, UniProt O60341); conditions: Table 18; cited from earlier work
MAO A = biological target: T4, MAO A (Homo sapiens, UniProt P21397); conditions: Table 18, MAO A (first value or marked A); read-out: Select MAOs A and B; cited from earlier work
T4 sequence (P21397 1-527): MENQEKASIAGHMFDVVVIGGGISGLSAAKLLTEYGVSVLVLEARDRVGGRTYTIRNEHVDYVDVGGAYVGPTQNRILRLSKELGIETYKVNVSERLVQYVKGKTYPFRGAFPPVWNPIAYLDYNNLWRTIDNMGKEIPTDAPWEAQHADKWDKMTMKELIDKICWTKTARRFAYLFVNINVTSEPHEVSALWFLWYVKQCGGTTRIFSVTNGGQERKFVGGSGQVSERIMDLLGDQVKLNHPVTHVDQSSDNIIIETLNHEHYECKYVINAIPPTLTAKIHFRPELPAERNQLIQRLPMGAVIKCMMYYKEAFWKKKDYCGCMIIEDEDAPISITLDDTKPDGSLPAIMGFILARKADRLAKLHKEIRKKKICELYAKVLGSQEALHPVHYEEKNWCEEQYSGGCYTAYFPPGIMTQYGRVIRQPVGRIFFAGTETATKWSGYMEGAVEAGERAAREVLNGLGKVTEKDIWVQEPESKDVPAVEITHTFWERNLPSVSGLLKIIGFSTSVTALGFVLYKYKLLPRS

[9] = Human In Vivo Conc listed for agents
GSK-3 alpha = GSK-3 alpha (Homo sapiens, UniProt P49840); conditions: cited from earlier work
DOT1L [10] = biological target: T2, DOT1L; conditions: Table 20; cited from earlier work
MAO B = biological target: T5, MAO B (Homo sapiens, UniProt P27338); conditions: Table 18, MAO B (second value or marked B); read-out: Select MAOs A and B; cited from earlier work
T5 sequence (P27338 1-520): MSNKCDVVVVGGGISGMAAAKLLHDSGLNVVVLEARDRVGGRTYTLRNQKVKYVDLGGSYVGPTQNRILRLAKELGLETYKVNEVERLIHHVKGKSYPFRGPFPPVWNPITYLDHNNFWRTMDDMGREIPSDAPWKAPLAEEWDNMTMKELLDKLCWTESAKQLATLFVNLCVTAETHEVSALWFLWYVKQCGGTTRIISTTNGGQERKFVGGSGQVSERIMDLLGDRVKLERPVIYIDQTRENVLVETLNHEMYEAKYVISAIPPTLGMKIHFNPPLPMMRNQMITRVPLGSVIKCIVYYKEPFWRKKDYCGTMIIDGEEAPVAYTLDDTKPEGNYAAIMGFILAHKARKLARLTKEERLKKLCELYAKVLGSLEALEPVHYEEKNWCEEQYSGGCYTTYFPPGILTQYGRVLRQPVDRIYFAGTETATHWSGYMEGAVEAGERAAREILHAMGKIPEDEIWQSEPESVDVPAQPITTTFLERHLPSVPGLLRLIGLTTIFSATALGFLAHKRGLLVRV

LSD1 [11] = biological target: T3, LSD1; conditions: Table 18, LSD1; read-out: pKi or IC50 (converted); cited from earlier work
HDAC = conditions: Mechanism HDAC Inhib 1, 2, 3, 8; cited from earlier work
TAZ = conditions: Table 22; cited from earlier work
[12] = Table 21, KDM 4, read-out: Select KDM 4
[13] = Table 14, listed concentration, no test described
[14] = Table 20, listed concentration, no test described
[15] = HDAC inhibitor table, upper end of the wrapped range 100 uM-4 mM
[16] = HDAC inhibitor table, upper end of the wrapped range 100 uM-4 mM, no test described
[17] = Table 22, listed concentration, no test described

T1 sequence (Q15910 whole entry, species assumed): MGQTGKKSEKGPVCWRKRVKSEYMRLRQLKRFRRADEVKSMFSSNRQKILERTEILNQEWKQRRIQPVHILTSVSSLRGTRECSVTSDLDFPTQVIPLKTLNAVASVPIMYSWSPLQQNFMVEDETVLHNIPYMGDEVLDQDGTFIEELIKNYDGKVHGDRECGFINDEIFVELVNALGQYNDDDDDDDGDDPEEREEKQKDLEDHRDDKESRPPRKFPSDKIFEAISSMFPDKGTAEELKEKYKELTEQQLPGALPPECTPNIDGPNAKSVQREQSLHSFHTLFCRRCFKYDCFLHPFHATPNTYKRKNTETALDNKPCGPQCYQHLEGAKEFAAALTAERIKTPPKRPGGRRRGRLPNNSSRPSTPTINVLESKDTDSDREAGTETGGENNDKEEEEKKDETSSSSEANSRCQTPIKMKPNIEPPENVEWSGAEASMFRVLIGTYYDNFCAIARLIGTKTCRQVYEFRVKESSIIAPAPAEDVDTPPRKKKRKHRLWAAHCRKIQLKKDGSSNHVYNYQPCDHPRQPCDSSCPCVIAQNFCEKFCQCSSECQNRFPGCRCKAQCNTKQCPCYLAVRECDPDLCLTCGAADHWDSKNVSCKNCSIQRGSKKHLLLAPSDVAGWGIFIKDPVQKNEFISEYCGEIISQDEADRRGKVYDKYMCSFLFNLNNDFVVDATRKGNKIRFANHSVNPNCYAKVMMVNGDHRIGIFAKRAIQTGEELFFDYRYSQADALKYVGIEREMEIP
T1 sequence (O75530 whole entry partner, species assumed): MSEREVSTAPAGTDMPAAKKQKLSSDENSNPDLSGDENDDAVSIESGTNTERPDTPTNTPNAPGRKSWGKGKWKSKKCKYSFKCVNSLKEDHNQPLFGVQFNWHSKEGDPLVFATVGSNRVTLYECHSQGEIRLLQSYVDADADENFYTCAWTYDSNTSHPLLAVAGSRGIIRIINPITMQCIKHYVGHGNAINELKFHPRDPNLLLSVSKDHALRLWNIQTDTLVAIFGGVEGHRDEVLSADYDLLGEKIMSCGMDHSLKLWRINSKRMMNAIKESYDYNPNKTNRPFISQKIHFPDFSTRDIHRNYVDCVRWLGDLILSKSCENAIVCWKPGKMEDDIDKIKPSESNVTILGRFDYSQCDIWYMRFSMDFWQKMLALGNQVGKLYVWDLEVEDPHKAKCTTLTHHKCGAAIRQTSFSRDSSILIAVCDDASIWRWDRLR
T1 sequence (Q15022 whole entry partner, species assumed): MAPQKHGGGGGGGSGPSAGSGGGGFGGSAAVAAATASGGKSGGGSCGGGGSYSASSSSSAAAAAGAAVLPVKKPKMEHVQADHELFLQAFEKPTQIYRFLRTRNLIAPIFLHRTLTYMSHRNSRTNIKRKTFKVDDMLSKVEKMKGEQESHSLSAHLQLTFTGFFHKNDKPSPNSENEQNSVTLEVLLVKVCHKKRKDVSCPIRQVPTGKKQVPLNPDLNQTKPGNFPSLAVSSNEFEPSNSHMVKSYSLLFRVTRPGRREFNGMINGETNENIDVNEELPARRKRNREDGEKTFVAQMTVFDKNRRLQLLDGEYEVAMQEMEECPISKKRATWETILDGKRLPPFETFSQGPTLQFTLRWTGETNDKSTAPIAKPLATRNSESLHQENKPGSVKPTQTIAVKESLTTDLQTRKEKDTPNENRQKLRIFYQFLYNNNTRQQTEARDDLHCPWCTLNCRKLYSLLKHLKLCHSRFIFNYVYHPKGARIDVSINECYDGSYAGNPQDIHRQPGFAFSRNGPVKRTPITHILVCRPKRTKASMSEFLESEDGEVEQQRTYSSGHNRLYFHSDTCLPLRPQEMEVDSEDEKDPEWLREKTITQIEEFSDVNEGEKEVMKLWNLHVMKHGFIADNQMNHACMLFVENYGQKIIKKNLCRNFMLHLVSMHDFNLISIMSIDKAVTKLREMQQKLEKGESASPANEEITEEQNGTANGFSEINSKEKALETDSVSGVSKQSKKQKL
T2 sequence (Q8TEK3 whole entry, species assumed): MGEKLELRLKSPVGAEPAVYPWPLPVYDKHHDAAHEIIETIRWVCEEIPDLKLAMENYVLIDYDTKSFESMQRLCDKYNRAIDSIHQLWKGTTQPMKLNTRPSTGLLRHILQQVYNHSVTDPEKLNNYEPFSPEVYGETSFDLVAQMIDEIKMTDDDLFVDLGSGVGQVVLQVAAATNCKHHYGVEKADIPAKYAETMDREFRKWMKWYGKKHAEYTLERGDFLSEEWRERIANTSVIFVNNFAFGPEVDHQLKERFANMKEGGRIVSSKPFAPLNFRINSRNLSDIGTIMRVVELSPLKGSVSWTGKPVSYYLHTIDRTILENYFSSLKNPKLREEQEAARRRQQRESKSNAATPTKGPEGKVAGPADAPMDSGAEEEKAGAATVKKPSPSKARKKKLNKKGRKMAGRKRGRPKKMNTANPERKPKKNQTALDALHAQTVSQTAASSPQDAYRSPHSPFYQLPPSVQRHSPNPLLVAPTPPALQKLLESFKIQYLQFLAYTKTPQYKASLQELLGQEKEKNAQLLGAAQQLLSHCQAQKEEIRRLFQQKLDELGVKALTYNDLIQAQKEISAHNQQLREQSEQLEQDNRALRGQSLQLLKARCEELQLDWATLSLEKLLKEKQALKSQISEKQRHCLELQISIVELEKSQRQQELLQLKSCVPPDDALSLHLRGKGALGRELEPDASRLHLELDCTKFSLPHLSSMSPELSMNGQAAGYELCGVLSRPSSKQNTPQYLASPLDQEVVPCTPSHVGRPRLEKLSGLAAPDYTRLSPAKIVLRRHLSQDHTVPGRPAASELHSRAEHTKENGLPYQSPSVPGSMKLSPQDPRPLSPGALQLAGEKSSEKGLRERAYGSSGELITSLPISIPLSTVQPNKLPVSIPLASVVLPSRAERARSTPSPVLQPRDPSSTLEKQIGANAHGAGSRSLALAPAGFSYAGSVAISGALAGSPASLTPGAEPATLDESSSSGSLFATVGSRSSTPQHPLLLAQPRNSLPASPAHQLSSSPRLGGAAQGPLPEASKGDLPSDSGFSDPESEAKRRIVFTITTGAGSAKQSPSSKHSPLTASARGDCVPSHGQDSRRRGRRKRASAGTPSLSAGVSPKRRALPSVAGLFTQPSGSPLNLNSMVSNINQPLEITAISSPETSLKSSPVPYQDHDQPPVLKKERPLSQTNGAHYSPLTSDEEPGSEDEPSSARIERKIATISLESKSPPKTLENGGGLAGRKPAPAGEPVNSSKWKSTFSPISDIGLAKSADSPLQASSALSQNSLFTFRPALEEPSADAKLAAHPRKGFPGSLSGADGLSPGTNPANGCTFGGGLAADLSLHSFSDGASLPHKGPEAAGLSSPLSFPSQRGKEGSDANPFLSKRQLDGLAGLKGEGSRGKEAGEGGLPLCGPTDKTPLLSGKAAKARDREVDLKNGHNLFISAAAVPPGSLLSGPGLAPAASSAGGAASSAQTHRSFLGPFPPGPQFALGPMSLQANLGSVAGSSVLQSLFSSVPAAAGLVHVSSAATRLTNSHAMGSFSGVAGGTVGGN
Chain of GSK-3 alpha (P49840 whole entry): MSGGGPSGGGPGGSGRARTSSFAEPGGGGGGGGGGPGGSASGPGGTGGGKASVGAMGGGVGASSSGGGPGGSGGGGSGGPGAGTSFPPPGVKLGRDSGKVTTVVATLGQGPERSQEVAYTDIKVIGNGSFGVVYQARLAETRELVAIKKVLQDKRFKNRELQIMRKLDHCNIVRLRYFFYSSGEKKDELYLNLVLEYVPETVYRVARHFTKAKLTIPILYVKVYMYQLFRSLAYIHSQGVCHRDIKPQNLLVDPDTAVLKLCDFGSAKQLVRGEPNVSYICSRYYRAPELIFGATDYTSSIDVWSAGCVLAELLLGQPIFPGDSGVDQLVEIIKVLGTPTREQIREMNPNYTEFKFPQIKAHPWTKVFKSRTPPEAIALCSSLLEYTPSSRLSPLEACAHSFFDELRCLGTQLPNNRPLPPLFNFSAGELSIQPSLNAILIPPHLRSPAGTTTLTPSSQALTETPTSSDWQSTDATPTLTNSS
Chain of EZH-1 (Q92800 whole entry, species assumed): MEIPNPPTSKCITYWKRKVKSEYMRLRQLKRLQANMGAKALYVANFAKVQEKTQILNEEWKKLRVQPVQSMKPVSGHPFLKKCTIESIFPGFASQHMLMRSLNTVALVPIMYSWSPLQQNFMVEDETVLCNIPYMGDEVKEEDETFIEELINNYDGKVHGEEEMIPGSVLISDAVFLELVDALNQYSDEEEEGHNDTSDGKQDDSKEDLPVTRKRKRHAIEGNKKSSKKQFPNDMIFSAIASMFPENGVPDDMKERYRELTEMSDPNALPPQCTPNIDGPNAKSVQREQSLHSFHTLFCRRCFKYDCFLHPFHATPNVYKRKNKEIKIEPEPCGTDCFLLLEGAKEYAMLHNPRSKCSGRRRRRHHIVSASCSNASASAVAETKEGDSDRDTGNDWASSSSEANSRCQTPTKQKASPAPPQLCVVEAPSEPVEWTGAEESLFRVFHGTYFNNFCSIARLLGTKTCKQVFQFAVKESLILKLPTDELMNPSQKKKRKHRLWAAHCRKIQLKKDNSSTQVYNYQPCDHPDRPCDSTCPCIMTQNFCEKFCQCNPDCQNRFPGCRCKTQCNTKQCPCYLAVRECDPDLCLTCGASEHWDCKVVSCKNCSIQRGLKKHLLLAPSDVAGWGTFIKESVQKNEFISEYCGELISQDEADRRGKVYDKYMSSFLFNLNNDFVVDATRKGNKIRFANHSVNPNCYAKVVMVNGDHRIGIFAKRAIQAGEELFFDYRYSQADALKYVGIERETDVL
Chain of EZH-1 (O75530 whole entry partner, species assumed): as the sequence (O75530 whole entry partner, species assumed) above
Chain of EZH-1 (Q15022 whole entry partner, species assumed): as the sequence (Q15022 whole entry partner, species assumed) above

Molecule: N#Cc1c2c(c3nncn3c1NCc1ccco1)CN(Cc1ccccc1)CC2 [EED162]
IC50 (EZH2 [1]): 0.03 µM
Lit Cell Poten (EZH2 [2]): 80 nM

Molecule: COc1cc(C)[nH]c(=O)c1CN1CCc2c(Cl)cc([C@H](OC)C3COC3)c(Cl)c2C1=O [PF-06821497]
Perilymph Conc ([3]; Table 19): 0.001 to 0.1 µM
Human In Vivo Conc ([4]; Table 19): 0.005 to 0.05 µM
IC50 (EZH2 [1]): < 0.001 µM
Lit Cell Poten (EZH2 [2]): 4 to 6 nM
IC50 (EZH-1): 0.07 µM

Molecule: Cc1ncccc1-c1c(Cl)sc2ccc(NC(=O)NCC(=O)NCCCN(C)[C@@H]3CCCN(c4ncnc5[nH]ccc45)C3)cc12 [Compound 7]
IC50 (DOT1L [5]): < 0.001 µM

Perilymph Conc ([3]; Table 21): 0.12 to 10 µM
Molecule: O=C(O)CCN(O)C(=O)CCCCCCCCC1CC1 [TC-E5002]
Lgr5+ Assay (Lgr5+ cells; Table 21): 0.12 to 10 µM
Human In Vivo Conc ([4]; Table 21): 0.12 to 10 µM
IC50 (KDM [6]; [12]): 83 µM
IC50 (KDM [6]; Table 21, KDM 5, read-out: Select KDM 5): 55 µM
IC50 (KDM [6]; Table 21, KDM 6, read-out: Select KDM 6): > 100 µM
Lit Cell (KDM [7]): 1640 µM

Molecule: N[C@H]1CC[C@H](N[C@@H]2C[C@H]2c2ccccc2)CC1 (relative stereo) [ORY-1001]
Literat. Cell (LSD1 [8]): 0.5 to 3 nM
IC50 (MAO A): > 100 µM

Perilymph Conc ([3]; Table 19): 0.37 to 1.1 µM
Human In Vivo Conc ([9]; Table 19, value in brackets, converted): (200-1600 nM)
Molecule: CCN(c1cc(-c2ccc(CN3CCOCC3)cc2)cc(C(=O)NCc2c(C)cc(C)[nH]c2=O)c1C)C1CCOCC1 [Tazemetostat]
Human In Vivo Conc ([4]; Table 19): 100 to 800 ng/mL

Perilymph Conc [3, 13]: 0.2 to 1 µM
Molecule: Cc1ccc(C(=O)Nc2c[nH]nc2C(=O)NCCCOC(C)C)cn1 [GSK XXII]
Lgr5+ Assay (Lgr5+ cells; Table 14): 0.2 to 1 µM
GSK-3 alpha (GSK-3 alpha): 2.3 nM

Molecule: O=C(O)CCNc1cc(N2CCc3ccccc3CC2)nc(-c2ccccn2)n1 [GSK-J1]
Lit Cell (KDM [7]): 50 µM

Perilymph Conc [3, 14]: 0.6 to 5 µM
Human In Vivo Conc ([9]; Table 20): 0.1 to 5 µM
Molecule: CC(C)N(CCCNC(=O)Nc1ccc(C(C)(C)C)cc1)C[C@H]1O[C@@H](n2cc(Br)c3c(N)ncnc32)[C@H](O)[C@@H]1O [SGC0946]
Lit Cell (DOT1L [10]): 10 nM

Molecule: Cn1cc(C(=O)Nc2ccc([C@@H]3C[C@H]3NCC3CC3)cc2)cn1 [Compound T-3775440]
IC50 (MAO A): 110 µM
IC50 (MAO B): 17 µM

Cmax ([9]; human, plasma, Table 18, value in brackets, converted): 0.073 to 0.44 µM
Molecule: NNCCc1ccccc1 [Phenelzine sulfate]
Literat. Cell (LSD1 [8]): 900 nM

Molecule: Cc1ccc(-c2ncc(OC[C@@H]3CCNC3)cc2-c2ccc(C#N)cc2)cc1 [GSK-354]
IC50 (LSD1 [11]): 0.029 to 0.08 µM
Literat. Cell (LSD1 [8]): 1300 nM
IC50 (MAO B): 19 µM

Molecule: Cc1cc(C)c(CNC(=O)c2cc(-c3ccc(N4CCN(C)CC4)nc3)cc3c2cnn3C(C)C)c(=O)[nH]1 [GSK926]
IC50 (EZH2 [1]): 0.0079 µM
Lit Cell Poten (EZH2 [2]): 324 nM

Perilymph Conc [3, 16]: ≤ 4000 µM
Molecule: O=C(O)CCCc1ccccc1 [Na phenylbutyrate]
Lgr5+ Assay (Lgr5+ cells; [15]): ≤ 4000 µM
HDAC Potenc (HDAC): 9 to 16 µM

Perilymph Conc ([3]; Table 19): 1 to 10 µM
Molecule: CPI-169
Human In Vivo Conc ([4]; Table 19): 1 to 10 µM
IC50 (EZH-1): 0.006 µM

Perilymph Conc [3, 16]: ≤ 4000 µM
Molecule: C#CCC(CCCCCC)C(=O)O (centres unmarked) [2-hexyl-4-pentynoic acid]
Lgr5+ Assay (Lgr5+ cells; [15]): ≤ 4000 µM
HDAC Potenc (HDAC): 13 µM

Molecule: CCCc1cc(C)[nH]c(=O)c1CNC(=O)c1cc(-c2ccc(N3CCN(C(C)C)CC3)nc2)cc2c1cnn2C(C)C [UNCI 999]
Lgr5+ Assay (Lgr5+ cells; Table 19, result in words): Activity
IC50 (EZH2 [1]): 0.01 µM
Lit Cell Poten (EZH2 [2]): 124 nM

Perilymph Conc [3, 17]: 1 to 10 µM
Molecule: C=CCNc1nc(N)c(C(=O)c2ccc(F)s2)s1 [TT10]
Lgr5+ Assay (Lgr5+ cells; Table 22): 1 to 10 µM
Lit Cell (TAZ): 1 µM

Molecule: CC(C)c1c(-c2ccccc2)[nH]c2c(C#N)cnn2c1=O [CPI-455]
IC50 (KDM [6]; [12]): 0.041 µM
Lit Cell (KDM [7]): 0.09 µM

Perilymph Conc [3, 13]: 1 to 5 µM
Molecule: N#Cc1ccc2[nH]c(O)c(-c3ccc(CN4CCOCC4)cn3)c2c1 [AZD 1080]
GSK-3 alpha (GSK-3 alpha): 6.9 nM

Perilymph Conc [3, 17]: 10 to 100 µM
Molecule: CCCCc1nc2cc(-c3cccnc3)c(C)nc2n1Cc1ccc(-c2ccccc2-c2nn[nH]n2)cc1 [TM-25659]
Lgr5+ Assay (Lgr5+ cells; Table 22): 10 to 100 µM
Lit Cell (TAZ): 10 to 100 µM

Perilymph Conc [3, 14]: 0.1 to 10 µM
Human In Vivo Conc ([9]; Table 20): (1-10 uM
Molecule: CC(C)N(C[C@H]1O[C@@H](n2cnc3c(N)ncnc32)[C@H](O)[C@@H]1O)[C@H]1C[C@@H](CCc2nc3cc(C(C)(C)C)ccc3[nH]2)C1 [Pinometostat (EPZ-5676)]
Lit Cell (DOT1L [10]): 2.7 nM

Perilymph Conc [3, 14]: 0.6 to 45 µM
Human In Vivo Conc ([9]; Table 20): 0.1 to 45 µM
Molecule: CC(C)N(CCCNC(=O)Nc1ccc(C(C)(C)C)cc1)C[C@H]1O[C@@H](n2ccc3c(N)ncnc32)[C@H](O)[C@@H]1O [EPZ004777]
Lgr5+ Assay (Lgr5+ cells; Table 20): 0.6 to 45 µM

Molecule: CNc1ccnc(Nc2ccc3cc(C)n(-c4ccccc4Oc4cnc5c(c4)ncn5C)c3c2)n1 [Compound 13]
IC50 (DOT1L [5]): 0.0004 µM
